Assays:
[1] = test system: Drp1 S637 phosphorylation in 3T3-L1 adipocytes; assay: Immunoblot of phospho-Drp1 (S637) in 3T3-L1 adipocytes after forskolin; type: cell-based, murine; conditions: pretreated with 50 μM RBC8 or DMSO for 30 min, then 5 μM forskolin
From the text: Immunoblotting of phospho-Drp1 S637, total Drp1 and β-Tubulin in iWAT of HFD-fed Rala^f/f (n=10) and Rala^AKO (n=13) mice. FIGS. 12B and 12C: Immunoblotting (FIG. 12B) and quantification (FIG. 12C) of phospho-Drp1(S637), total Drp1, and β-Tubulin in eWAT of HFD-fed Rala^f/f (n=8) and Rala^AKO (n=12) mice. FIGS. 12D and 12E: Immunoblotting (FIG. 12D) and quantification (FIG. 12E) of phospho-Drp1(S637), total Drp1 and β-Actin in iWAT of CD-fed mice. Non-fasted Rala^f/f (vehicle n=3, CL n=4) and Rala^AKO (vehicle n=3, CL n=5) mice fed with CD were i.p. injected with 1 mg/kg CL for 30 min. P=0.0054, P=0.0135 (FIG. 12E). FIGS. 12F and 12G: Immunoblotting (FIG. 12F) and quantification (FIG. 12G) of phospho-Drp1(S637), total Drp1, RalA, and β-Actin in fully differentiated primary adipocytes (n=4 biological samples). P=0.0085, P=0.0046 (FIG. 12G). […] FIGS. 12H and 12I: Immunoblotting (FIG. 12H) and quantification (FIG. 12I) of phospho-Drp1(S637), total Drp1, RalA, and β-Actin in immortalized adipocytes (n=4 biological samples). […] FIGS. 12J and 12K: Immunoblotting (FIG. 12J) and quantification (FIG. 12K) of phospho-Drp1(S637), total Drp1, and β-Actin in 3T3-L1 adipocytes (n=4 biological samples). […] FIGS. 12M and 12N: Quantification of phospho-HSL (S660) and HSL in primary (FIG. 12M) and immortalized adipocytes (FIG. 12N) treated with CL for indicated time (n=4 biological samples). […]

[2] = test system: Drp1 S637 phosphorylation in human primary adipocyte cell line SGBS; assay: Immunoblot of phospho-Drp1 (S637) in human primary adipocytes (SGBS) after forskolin; type: cell-based; conditions: SGBS cells; pretreated with 50 μM RBC8 or DMSO for 30 min, then 20 μM forskolin
Protocol: FIGS. 5A-5J. […] FIG. 5A: Quantification of phospho-Drp1 (S637) and total Drp1 in iWAT of HFD-fed Rala^f/f (n=10) and Rala^AKO (n=13) mice; P=0.0001. FIGS. 5B and 5C: Immunoblotting (FIG. 5B) and quantification (FIG. 5C) of phospho-Drp1 (S637) and total Drp1 in immortalized adipocytes (n=4 biological samples); P=0.0125 (FIG. 5C). Adipocytes were treated with 20 μM forskolin (Fsk) for indicated time. FIGS. 5D and 5E: Immunoblotting (FIG. 5D) and quantification of phospho-Drp1 (S637) and total Drp1 in human primary adipocytes (SGBS) (n=4 biological samples). […] Significance in correlation was assessed by Spearman's correlation test (FIGS. 5H, and 5J). […]
Tissues or cells were lysed or homogenized in RIPA buffer with freshly added Halt Protease and Phosphatase Inhibitor Cocktail (Thermo Fisher). […] Cleared supernatants were collected and concentrations were determined with a BCA protein assay kit (Pierce) and iTecan plate reader for quantification. […] Individual 10 proteins were detected with the specific antibodies (OXPHOS ab110413, β-tubulin 2146S, phospho-Drp1 (Ser637) 4867S, phospho-HSL (Ser660) 45804S, HSL 4107S, MYC 2276S, Drp1 8570S, phosphor-AMPK (Thr172) 2535S, AMPK 5831S, RalA BD610221, β-actin 66009-1-Ig, Flag 66008-4-Ig, GFP 66002-1-Ig, and Sec512751-1-AP). […] Bands were quantified with ImageStudio or ImageJ.

SMILES: COc1ccc(OC)c(C2C(C#N)=C(N)Oc3n[nH]c(-c4ccc5ccccc5c4)c32)c1 (centres unmarked) [RBC8]
- forskolin-stimulated Drp1 S637 phosphorylation [1]: significantly increased forskolin-stimulated Drp1 S637 phosphorylation
- forskolin-stimulated Drp1 S637 phosphorylation [2]: increased forskolin-stimulated Drp1 S637 phosphorylation
